# Experiments:
# BT-549 = experiment: NCI in vitro cell line screen (SRB), Breast Cancer BT-549; type: cell-based
# Experimental: (§1) For exemplary purposes, an embodiment of the present invention was tested for activity with respect to certain cancer cell lines. The following Tables show results from in vitro 60-cell line antitumor testing from the US National Cancer Institute Developmental Therapeutics Program (NCI-DTP) on compound 2. The testing was in connection with the NCI's In Vitro Cell Line Screening Project (IVCLSP). Detailed information regarding the experiments and their interpretation is available from the NCI.
# PC-3 = experiment: NCI in vitro cell line screen (SRB), Prostate Cancer PC-3; type: cell-based
# Experimental: as §1
# UACC-257 = experiment: NCI in vitro cell line screen (SRB), Melanoma UACC-257; type: cell-based
# Experimental: as §1
# TK-10 = experiment: NCI in vitro cell line screen (SRB), Renal Cancer TK-10; type: cell-based
# Experimental: as §1
# HCT-116 = experiment: NCI in vitro cell line screen (SRB), Colon Cancer HCT-116; type: cell-based
# Experimental: as §1
# SK-MEL-2 = experiment: NCI in vitro cell line screen (SRB), Melanoma SK-MEL-2; type: cell-based
# Experimental: as §1
# NCI-H226 = experiment: NCI in vitro cell line screen (SRB), Non-Small Cell Lung Cancer NCI-H226; type: cell-based
# Experimental: as §1
# [1] = biological target: T1, recombinant VEGF protein standard (Homo sapiens, UniProt P15692); experiment: interference with the VEGF ELISA using VEGF standard
# T1 construct: purchased R & D Systems
# Experimental: The effects of compounds 1 and 2 on hypoxic induction of secreted VEGF protein are examined in T47D cells. Exponentially grown T47D cells are plated at the density of 30,000 cells/well into 96-well plates. Compound treatment and hypoxic exposure are the same as described. Following incubation, the concentration of secreted VEGF protein in the conditioned media is determined by ELISA (R & D Systems) and the data normalized by the number of viable cells. Results shown in FIG. 4 are averages from a representative experiment performed in quadruplicate, the bars represent standard error. An asterisk (*) indicates the level of significance (p<0.01) relative to the hypoxic control, two asterisks (**) (p<0.0001), and no asterisk indicates no statistical difference (ANOVA and Fisher's PLSD post hoc test).
# As discussed earlier, one important HIF-1 target gene is VEGF, a key factor for tumor angiogenesis. Compounds that can inhibit both HIF-1 activation and the production of secreted VEGF protein represent potential efficacious chemotherapeutic agents that inhibit both tumor survival and hypoxia induced angiogenesis. […] Following incubation, the concentration of secreted VEGF protein in the conditioned media is determined by ELISA (R & D Systems) and the data normalized by the number of viable cells. […] The level of significance (p<0.01) is determined by ANOVA and Fisher's PLSD post hoc test. […]
# [2] = Homo sapiens, read-out: LC50 (the source's name)
# T1 sequence (P15692 27-191 isoform P15692-4): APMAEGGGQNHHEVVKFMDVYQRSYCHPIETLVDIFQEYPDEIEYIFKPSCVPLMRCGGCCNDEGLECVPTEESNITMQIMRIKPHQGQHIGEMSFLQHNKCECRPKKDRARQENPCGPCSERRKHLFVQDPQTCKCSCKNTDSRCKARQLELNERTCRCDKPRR
compound,measurement,setting,value
"COc1ccc([C@@H](O)[C@@H](C)Oc2ccc([C@H]3O[C@H](c4ccc(O[C@H](C)[C@H](O)c5ccc6c(c5)OCO6)c(OC)c4)[C@H](C)[C@H]3C)cc2OC)cc1OC [Compound 2, manassantin B]",TGI,BT-549,1.32E−5 Molar
same,GI50,BT-549; Homo sapiens,1.07 µM
same,CC50,BT-549; [2],> 100 µM
same,Mean Optical Densities,BT-549; Log10 Concentration −4.0 Molar,0.474
same,Percent Growth,BT-549; Log10 Concentration −4.0 Molar,−22%
same,Mean Optical Densities,BT-549; Log10 Concentration −5.0 Molar,0.620
same,Percent Growth,BT-549; Log10 Concentration −5.0 Molar,3%
same,Mean Optical Densities,BT-549; Log10 Concentration −6.0 Molar,0.813
same,Percent Growth,BT-549; Log10 Concentration −6.0 Molar,51%
same,Mean Optical Densities,BT-549; Log10 Concentration −7.0 Molar,0.868
same,Percent Growth,BT-549; Log10 Concentration −7.0 Molar,65%
same,Mean Optical Densities,BT-549; Log10 Concentration −8.0 Molar,0.838
same,Percent Growth,BT-549; Log10 Concentration −8.0 Molar,58%
same,TGI,PC-3,1.77E−5 Molar
same,GI50,PC-3; Homo sapiens,2.37 µM
same,CC50,PC-3; [2],> 100 µM
same,Mean Optical Densities,PC-3; Log10 Concentration −4.0 Molar,0.152
same,Percent Growth,PC-3; Log10 Concentration −4.0 Molar,−30%
same,Mean Optical Densities,PC-3; Log10 Concentration −5.0 Molar,0.268
same,Percent Growth,PC-3; Log10 Concentration −5.0 Molar,10%
same,Mean Optical Densities,PC-3; Log10 Concentration −6.0 Molar,0.588
same,Percent Growth,PC-3; Log10 Concentration −6.0 Molar,74%
same,Mean Optical Densities,PC-3; Log10 Concentration −7.0 Molar,0.668
same,Percent Growth,PC-3; Log10 Concentration −7.0 Molar,90%
same,Mean Optical Densities,PC-3; Log10 Concentration −8.0 Molar,0.665
same,Percent Growth,PC-3; Log10 Concentration −8.0 Molar,89%
same,TGI,UACC-257,>1.00E−4 Molar
same,GI50,UACC-257; Homo sapiens,1.09 µM
same,CC50,UACC-257; [2],> 100 µM
same,Mean Optical Densities,UACC-257; Log10 Concentration −4.0 Molar,1.165
same,Percent Growth,UACC-257; Log10 Concentration −4.0 Molar,12%
same,Mean Optical Densities,UACC-257; Log10 Concentration −5.0 Molar,1.270
same,Percent Growth,UACC-257; Log10 Concentration −5.0 Molar,23%
same,Mean Optical Densities,UACC-257; Log10 Concentration −6.0 Molar,1.558
same,Percent Growth,UACC-257; Log10 Concentration −6.0 Molar,51%
same,Mean Optical Densities,UACC-257; Log10 Concentration −7.0 Molar,1.565
same,Percent Growth,UACC-257; Log10 Concentration −7.0 Molar,52%
same,Mean Optical Densities,UACC-257; Log10 Concentration −8.0 Molar,1.673
same,Percent Growth,UACC-257; Log10 Concentration −8.0 Molar,62%
same,TGI,TK-10,>1.00E−4 Molar
same,GI50,TK-10; Homo sapiens,4.15 µM
same,CC50,TK-10; [2],> 100 µM
same,Mean Optical Densities,TK-10; Log10 Concentration −4.0 Molar,1.117
same,Percent Growth,TK-10; Log10 Concentration −4.0 Molar,16%
same,Mean Optical Densities,TK-10; Log10 Concentration −5.0 Molar,1.163
same,Percent Growth,TK-10; Log10 Concentration −5.0 Molar,22%
same,Mean Optical Densities,TK-10; Log10 Concentration −6.0 Molar,1.674
same,Percent Growth,TK-10; Log10 Concentration −6.0 Molar,95%
same,Mean Optical Densities,TK-10; Log10 Concentration −7.0 Molar,1.684
same,Percent Growth,TK-10; Log10 Concentration −7.0 Molar,97%
same,Mean Optical Densities,TK-10; Log10 Concentration −8.0 Molar,1.707
same,Percent Growth,TK-10; Log10 Concentration −8.0 Molar,100%
same,TGI,HCT-116,>1.00E−4 Molar
same,GI50,HCT-116; Homo sapiens,2.25 µM
same,CC50,HCT-116; [2],> 100 µM
same,Mean Optical Densities,HCT-116; Log10 Concentration −4.0 Molar,0.329
same,Percent Growth,HCT-116; Log10 Concentration −4.0 Molar,15%
same,Mean Optical Densities,HCT-116; Log10 Concentration −5.0 Molar,0.498
same,Percent Growth,HCT-116; Log10 Concentration −5.0 Molar,32%
same,Mean Optical Densities,HCT-116; Log10 Concentration −6.0 Molar,0.770
same,Percent Growth,HCT-116; Log10 Concentration −6.0 Molar,60%
same,Mean Optical Densities,HCT-116; Log10 Concentration −7.0 Molar,0.867
same,Percent Growth,HCT-116; Log10 Concentration −7.0 Molar,70%
same,Mean Optical Densities,HCT-116; Log10 Concentration −8.0 Molar,0.978
same,Percent Growth,HCT-116; Log10 Concentration −8.0 Molar,81%
same,TGI,SK-MEL-2,>1.00E−4 Molar
same,GI50,SK-MEL-2; Homo sapiens,> 100 µM
same,CC50,SK-MEL-2; [2],> 100 µM
same,Mean Optical Densities,SK-MEL-2; Log10 Concentration −4.0 Molar,0.764
same,Percent Growth,SK-MEL-2; Log10 Concentration −4.0 Molar,54%
same,Mean Optical Densities,SK-MEL-2; Log10 Concentration −5.0 Molar,0.928
same,Percent Growth,SK-MEL-2; Log10 Concentration −5.0 Molar,78%
same,Mean Optical Densities,SK-MEL-2; Log10 Concentration −6.0 Molar,1.066
same,Percent Growth,SK-MEL-2; Log10 Concentration −6.0 Molar,98%
same,Mean Optical Densities,SK-MEL-2; Log10 Concentration −7.0 Molar,0.900
same,Percent Growth,SK-MEL-2; Log10 Concentration −7.0 Molar,74%
same,Mean Optical Densities,SK-MEL-2; Log10 Concentration −8.0 Molar,1.020
same,Percent Growth,SK-MEL-2; Log10 Concentration −8.0 Molar,92%
same,TGI,NCI-H226,1.77E−5 Molar
same,GI50,NCI-H226; Homo sapiens,0.483 µM
same,LC50 (concentration killing 50% of cells),NCI-H226; Homo sapiens,> 100 µM
same,Mean Optical Densities,NCI-H226; Log10 Concentration −4.0 Molar,0.559
same,Percent Growth,NCI-H226; Log10 Concentration −4.0 Molar,−16%
same,Mean Optical Densities,NCI-H226; Log10 Concentration −5.0 Molar,0.678
same,Percent Growth,NCI-H226; Log10 Concentration −5.0 Molar,5%
same,Mean Optical Densities,NCI-H226; Log10 Concentration −6.0 Molar,0.765
same,Percent Growth,NCI-H226; Log10 Concentration −6.0 Molar,36%
same,Mean Optical Densities,NCI-H226; Log10 Concentration −7.0 Molar,0.885
same,Percent Growth,NCI-H226; Log10 Concentration −7.0 Molar,79%
same,Mean Optical Densities,NCI-H226; Log10 Concentration −8.0 Molar,0.822
same,Percent Growth,NCI-H226; Log10 Concentration −8.0 Molar,57%
same,interference with the ELISA assay,[1],neither compound interferes

# Source: patent publication US20090137664A1, “SAURURUS CERNUUS COMPOUNDS THAT INHIBIT CELLULAR RESPONSES TO HYPOXIA” (priority 2003, published 2009)
